Structures can show the parent of a compound that is named as a salt.
Legend:
[1] = tested on: Echinochloa crusgalli; assay: Table 7 field trial, treatment at the 1-2 leaf stage: weed control; format: in vivo; settings: 2 g of ai/ha, 28 days after application
Experimental: (§7) The examples mentioned below were carried out in the greenhouse, and in some instances, in field trials.

[2] = tested on: Cyperus serotinus; assay: Table 12 greenhouse trial, treatment at the 1-2 leaf stage: weed control; format: in vivo; settings: 20 days after application
Experimental: (§1) Seeds or rhizome pieces of mono- and dicotyledonous weed plants are placed into sandy loam soil in plastic pots, covered with soil and grown in a greenhouse under good growth conditions (temperature, atmospheric humidity, water supply). Weeds which are encountered in the cultivation of rice are cultivated in pots in which the water level is up to 2 cm over the soil surface. Three weeks after sowing, the test plants are treated at the three-leaf stage. The active compound combinations according to the invention, formulated as wettable powders or emulsion concentrates, and, in parallel experiments, the correspondingly formulated individual active compounds are sprayed onto the green parts of the plants at different dosages using an amount of water of 300 to 600 l/ha (converted), and, after about 3 to 4 weeks of the test plants in the greenhouse under optimum growth conditions (temperature, atmospheric humidity, water supply), the effect of the preparations is evaluated visually in comparison to untreated controls. In the case of rice or weeds which are encountered in the cultivation of rice, the active compounds are also added directly to the water for irrigation (application analogous to the so-called granules application) or sprayed onto plants and added to the water for irrigation. The experiments were designed with several, up to five, repetitions. The herbicidal compositions according to the invention also have good herbicidal post-emergence activity against a broad spectrum of economically important weed grasses and broad-leaved weeds.
(§2) Greenhouse trial: Treatment at the 1-2 leaf stage, evaluation 20 days after the application.

[3] = tested on: Ipomoea hederacea; assay: Table 20 field trial, treatment at the 4-6 leaf stage: weed control; format: in vivo; settings: 2.5 g of ai/ha, 28 days after application
From the text: (§3) Field trial: Treatment at the 4-6 leaf stage, evaluation 28 days after the application.

[4] = tested on: Echinochloa crusgalli; assay: Table 11 greenhouse trial, treatment at the 1-2 leaf stage: weed control; format: in vivo; settings: 20 days after application
Experimental: as §1, §2

[5] = tested on: Echinochloa crusgalli; assay: Table 5 field trial, treatment at the 2-4 leaf stage rice: weed control; format: in vivo; settings: evaluation after 28 days
Experimental: as §7

[6] = tested on: Oryza sativa; assay: Table 12 greenhouse trial, treatment at the 1-2 leaf stage: rice damage; format: in vivo; settings: in vivo
Experimental: as §1, §2

[7] = tested on: Echinochloa crusgalli; assay: Table 4 field trial: weed control; format: in vivo
Experimental: as §7

[8] = tested on: Cyperus serotinus; assay: Table 19 field trial, treatment at the 2 leaf stage: weed control; format: in vivo; settings: 14 days after application
From the text: Field trial: Treatment at the 2 leaf stage, evaluation 14 days after the application.

[9] = tested on: Scirpus juncoides; assay: Table 10 greenhouse trial, treatment at the 1-2 leaf stage: weed control; format: in vivo; settings: 20 days after application
Experimental: as §1, §2

[10] = tested on: Echinochloa crusgalli; assay: Table 9 greenhouse trial, treatment at the 1-2 leaf stage: weed control; format: in vivo; settings: 22 days after application
Experimental: as §1
(§4) Greenhouse trial: Treatment at the 1-2 leaf stage, evaluation 22 days after the application.

[11] = tested on: Oryza sativa (paddy rice); assay: Table 1: damage to paddy rice; format: in vivo
Experimental: as §7

[12] = tested on: Oryza sativa; assay: Table 15 greenhouse trial, treatment at the 2-3 leaf stage: rice damage; format: in vivo; settings: 20 days after application
Experimental: as §1

[13] = tested on: Sagittaria pygmaea; assay: Table 13 greenhouse trial, treatment at the 5-6 leaf stage: weed control; format: in vivo; settings: 20 days after application
Experimental: as §1
(§5) Greenhouse trial: Treatment at the 5-6 leaf stage, evaluation 20 days after the application.

[14] = tested on: Oryza sativa; assay: Table 6 field trial, treatment at the 1-2 leaf stage: rice damage; format: in vivo; settings: 2 g of ai/ha; field trial, 28 days after application
Experimental: as §7

[15] = tested on: Cyperus serotinus; assay: Table 16 greenhouse trial, treatment at the 2-3 leaf stage: weed control; format: in vivo; settings: 20 days after application
Experimental: as §1
Greenhouse trail: Treatment at the 2-3 leaf stage, evaluation 20 days after the application.

[16] = tested on: Oryza sativa; assay: Table 4 field trial: rice damage
Experimental: as §7

[17] = tested on: Oryza sativa; assay: Table 25 field trial, treatment at the 3 leaf stage: rice damage; format: in vivo; settings: 33 days after application
From the text: (§6) Field trial: Treatment at the 3 leaf stage, evaluation 33 days after the application.

[18] = tested on: Polygonum convolvulus; assay: Table 25 field trial, treatment at the 3 leaf stage: weed control; format: in vivo; settings: 33 days after application
From the text: as §6

[19] = tested on: Oryza sativa; assay: Table 20 field trial, treatment at the 4-6 leaf stage: rice damage; format: in vivo; settings: 2.5 g of ai/ha, 28 days after application
From the text: as §3

[20] = tested on: Oryza sativa; assay: Table 14 greenhouse trial, treatment at the 3-4 leaf stage: rice damage; format: in vivo; settings: 21 days after application
Experimental: as §1
Greenhouse trial: Treatment at the 3-4 leaf stage, evaluation 21 days after the application.

[21] = tested on: Oryza sativa; assay: Table 9 greenhouse trial, treatment at the 1-2 leaf stage: rice damage; format: in vivo; settings: 22 days after application
Experimental: as §1, §4

[22] = tested on: Oryza sativa; assay: Table 7 field trial, treatment at the 1-2 leaf stage: rice damage; format: in vivo; settings: 2 g of ai/ha, 28 days after application
Experimental: as §7

[23] = tested on: Oryza sativa; assay: Table 3 field trial, treatment at the 4-5 leaf stage (seed rice): rice damage; settings: 28 days after application
Experimental: as §7

[24] = tested on: Oryza sativa; assay: Table 13 greenhouse trial, treatment at the 5-6 leaf stage: rice damage; format: in vivo; settings: 20 days after application
Experimental: as §1, §5

[25] = tested on: Cyperus irria; assay: Table 3 field trial, treatment at the 2 leaf stage weed grasses: weed control; format: in vivo; settings: 28 days after application
Experimental: as §7

Q: How did the ECHCG % control [1] turn out when COC(=O)c1ccc(I)cc1S(=O)(=O)NC(=O)Nc1nc(C)nc(OC)n1 [A1*), Sodium salt of methyl 4-iodo-2-[3-(4-methoxy-6-methyl-1,3,5-triazin-2-yl)ureidosulfonyl]benzoate] was run?
A: 10%

Q: What about the CYPSE % control ([2]; 1.5 g of ai/ha) of the same compound?
A: 10%

Q: What about the CYPSE % control ([2]; 3 g of ai/ha) of the same compound?
A: 30%

Q: What about the IPOHE % control [3] of the same compound?
A: 30%

Q: And the ECHCG % control ([4]; 1.5 g of ai/ha)?
A: 40%

Q: And the ECHCG % control ([4]; 3 g of ai/ha)?
A: 60%

Q: And the ECHCG % control ([5]; 1.25 g of ai/ha)?
A: 0%

Q: And the ECHCG % control ([5]; 2.5 g of ai/ha)?
A: 0%

Q: What about the ECHCG % control ([5]; 5 g of ai/ha) of the same compound?
A: 0%

Q: And the ORYSW % damage [6]?
A: 10%

Q: And the ECHCG % control ([7]; 1.25 g of ai/ha)?
A: 0%

Q: What about the ECHCG % control ([7]; 2.5 g of ai/ha) of the same compound?
A: 0%

Q: And the ECHCG % control ([7]; 5 g of ai/ha)?
A: 0%

Q: What about the CYPSE % control ([8]; 1.5 g of ai/ha) of the same compound?
A: 10%

Q: And the CYPSE % control ([8]; 3 g of ai/ha)?
A: 30%

Q: And the SCIJU % control ([9]; 1.5 g of ai/ha)?
A: 40%

Q: And the SCIJU % control ([9]; 3 g of ai/ha)?
A: 40%

Q: And the ECHCG % control ([10]; 1.5 g of ai/ha)?
A: 40%

Q: What about the ECHCG % control ([10]; 3 g of ai/ha) of the same compound?
A: 60%

Q: What about the ORYSW % damage ([11]; 1.25 g of ai/ha) of the same compound?
A: 15%

Q: What about the ORYSW % damage ([11]; 2.5 g of ai/ha) of the same compound?
A: 15%

Q: What about the ORYSW % damage ([12]; 1.25 g of ai/ha) of the same compound?
A: 5%

Q: And the ORYSW % damage ([12]; 2.5 g of ai/ha)?
A: 10%

Q: And the ORYSW % damage ([12]; 5 g of ai/ha)?
A: 10%

Q: And the SAGPY % control ([13]; 1.5 g of ai/ha)?
A: 30%

Q: What about the SAGPY % control ([13]; 3 g of ai/ha) of the same compound?
A: 50%

Q: And the ORYSW % damage [14]?
A: 0%

Q: And the CYPSE % control ([15]; 1.25 g of ai/ha)?
A: 10%

Q: What about the CYPSE % control ([15]; 2.5 g of ai/ha) of the same compound?
A: 30%

Q: And the CYPSE % control ([15]; 5 g of ai/ha)?
A: 50%

Q: And the ORYSW % damage ([16]; 1.25 g of ai/ha)?
A: 0%

Q: And the ORYSW % damage ([16]; 2.5 g of ai/ha)?
A: 0%

Q: And the ORYSW % damage ([16]; 5 g of ai/ha)?
A: 1%

Q: And the ORYSW % damage ([17]; 1.25 g of ai/ha)?
A: 6%

Q: And the ORYSW % damage ([17]; 2.5 g of ai/ha)?
A: 12%

Q: What about the POLCO % control ([18]; 1.25 g of ai/ha) of the same compound?
A: 35%

Q: What about the POLCO % control ([18]; 2.5 g of ai/ha) of the same compound?
A: 80%

Q: What about the ORYSW % damage [19] of the same compound?
A: 8%

Q: What about the ORYSW % damage ([20]; 1.5 g of ai/ha) of the same compound?
A: 10%

Q: And the ORYSW % damage ([20]; 3 g of ai/ha)?
A: 10%

Q: And the ORYSW % damage ([21]; 1.5 g of ai/ha)?
A: 10%

Q: What about the ORYSW % damage ([21]; 3 g of ai/ha) of the same compound?
A: 10%

Q: What about the ORYSW % damage [22] of the same compound?
A: 0%

Q: And the ORYSW % damage ([23]; 0.75 g of ai/ha)?
A: 0%

Q: What about the ORYSW % damage ([23]; 1.5 g of ai/ha) of the same compound?
A: 0%

Q: And the ORYSW % damage ([23]; 2.5 g of ai/ha)?
A: 0%

Q: And the ORYSW % damage ([24]; 1.5 g of ai/ha)?
A: 10%

Q: And the ORYSW % damage ([24]; 3 g of ai/ha)?
A: 10%

Q: What about the CYPIR % control ([25]; 0.75 g of ai/ha) of the same compound?
A: 40%

Q: What about the CYPIR % control ([25]; 1.5 g of ai/ha) of the same compound?
A: 67%

Q: What about the CYPIR % control ([25]; 2.5 g of ai/ha) of the same compound?
A: 87%

Source: patent publication US6864217B2, “Herbicidal compositions with substituted phenylsulfonylureas for controlling weeds in rice” (Hoechst Schering AgrEvo GmbH, priority 1998, dated 2005)
